Results from patent US8048918B2, “Treatment of hyperproliferative diseases” (Vampex Limited, priority 2000, dated 2011).
Where no end group is shown, it is not given here.

Key:
[1] = system: normal human epidermal keratinocytes; assay: proliferation assay on normal human epidermal keratinocytes; format: cell-based
Method: Pieces of skin are washed thoroughly for 30 minutes in Betadine solution (10% iodine) followed by 2×10 minute washes in PBS. After removal of the subcutaneous tissue and dermis with a scalpel the skin is dissected into 5×10 mm pieces. The skin pieces are rinsed 5× in PBS followed by incubating in Dispase (grade 11, 2.4 U/ml, Boehringer Mannheim) for 18 hours at4° C.
The skin pieces are then placed dermis side down in 100 mm Petri dishes and are irrigated with 5 ml KSFM. The epidermis is peeled off with forceps and incubated in 10 ml 1× Trypsin/EDTA solution for 10 minutes at 37° C. followed by addition of 10 ml KSFM. The sample is mechanically agitated by aspiration and ejection from a transfer pipette. The resulting cell suspension is sieved using a cell strainer (Becton Dickinson) rinsing through with KSFM. The isolated epidermal cells are then washed twice in KSFM by centrifugation at 100 g for 10 min. Cells are seeded as below.
(§1) Primary cultures were seeded at 3500 cells/cm^2 in K-SFM 25 cm^2 tissue culture flasks. The medium was changed (5 ml per flask) the day after seeding and every other day thereafter. At 70-80% confluence the cells were subcultured by seeding 3500 cells/cm^2 in new 25 cm^2 flasks. On the day that the subcultures reached confluence the medium was switched to medium containing the experimental treatments.
(§2) The cells were cultured for 4 days, replacing the experimental medium every other day, before harvesting the cells.
Cell Seeding and Analysis: Purchased secondary cultures or primary cultures (from donor skin) are seeded at 3500 cells/cm^2 in K-SFM 25 cm^2 tissue culture flasks. The medium is changed (5 ml per flask) the day after seeding and every other day thereafter. […]
The medium is replaced every other day. […] The cell suspension is added to 20 ml Isoton solution in a Coulter counter “Accuvette” and the cells are counted. On each harvest, 3 wells of cells are counted for each treatment and 3 counts were made for each well.
Cell number is calculated as follows: Coulter Counter removes 500 μl of 20 ml sample ( 1/40). […]

[2] = system: normal human epidermal keratinocytes; assay: differentiation assay (K1/K10) on normal human epidermal keratinocytes; format: cell-based; details: for differentiation: Carbenoxolone 6 μM, Disulfiram 15 μM or Citral 10 μM, 1.2 mM calcium, FIG. 11
Method: as §1, §2
RNA extraction is carried out according to the manufacturers instructions using the RNeasy kit (QIAGEN). 20 μg of RNA for each treatment was separated on a 1.2% agarose (1.8% formaldehyde) gel and transferred onto a nylon membrane (Zeta probe GT membranes, BioRad) by capillary transfer. The RNA is fixed to the membrane by UV crosslinking. DNA probes for the differentiation markers K1 and K10(50 ng) are labelled with [α-^32P] dCTP using the Prime-It RmT Primer labeling kit (Stratagene) following the manufacturer's instructions. Unincorporated nucleotides are removed by elution through a Microspin G25 column (Pharmacia Biotech). The blots are wetted in 0.25M sodium phosphate (pH 7.2)/7% SDS for 30 minutes at 65° C. Fresh hybridisation solution is added along with the radiolabelled probe and the blot is hybridised overnight at 65° C.
The blot is washed for 2×5 minutes in 0.25M sodium phosphate (pH 7.2), 7% SDS and then for 2×5 minutes in 20 mM sodium phosphate (pH 7.2), 5% SDS at 65° C. The wash steps are repeated until a clear distinction can be made between the signal and non-specific background. The blot is exposed to x-ray film for 24 hours before developing.
Synthesis of mRNA for the K1 and K10 keratin (markers for commitment to terminal differentiation) is examined by quantitative reverse transcription PCR (RT-PCR). Synthesis of mRNA for Cyclin D (a marker for cell proliferation) is also assayed by RT-PCR. […] The RNA is blotted onto a nylon membrane by capillary transfer and expression of K1 mRNA is determined by Northern hybridisation with a radiolabelled DNA probe. […]

[3] = Carbenoxolone 6 μM, Disulfiram 15 μM or Citral 10 μM

Molecule | proliferation [1, 3] | differentiation [2] | proliferation ([1]; peptide 6 μM, RBP 0.6 μM, Ca 1.2 mM) | differentiation (expression of K1 and K10 markers) ([2]; peptide 6 μM, RBP 0.6 μM, Ca 1.2 mM, FIG. 6)
CC1(C)[C@@H](OC(=O)CCC(=O)O)CC[C@]2(C)[C@H]3C(=O)C=C4[C@@H]5C[C@@](C)(C(=O)O)CC[C@]5(C)CC[C@@]4(C)[C@]3(C)CC[C@@H]12 [Carbenoxolone] | inhibit proliferation | increase differentiation |  | 
GRVRLLNNWDVCA |  |  | reduces proliferation | enhances the expression of K1 and K10 markers
CC(C)=CCCC(C)=CC=O [Citral, 3,7-dimethyl-2,6-octadienal] | inhibit proliferation | increase differentiation |  | 
